Values of other authors, collected in patent US20250250278A2, “BRIARANE COMPOUNDS AND THEIR USE” (National Health Research Institutes, priority 2022, published 2025).

Assays:
[1] = test system: cyclooxygenase-2 (COX-2) mRNA; settings: LPS-challenged murine macrophages
[2] = not given; remark: listed apart in the source
[3] = test system: inducible nitric oxide synthase (iNOS) mRNA; settings: LPS-challenged murine macrophages

excavatolide B [ExcB]
bioavailability: low | inhibition of mRNA expression of COX-2 [1]: significantly inhibiting | solubility in water [2]: poor | inhibition of mRNA expression of iNOS [3]: significantly inhibiting
